Measurements published in a melting point compilation (Tetko et al.; mined from patent text by program, amines drawn as free bases though some values may be those of a salt).

Row | melting point | Compound
1 | 124 to 126 °C | O=C(CS(=O)(=O)c1ccccc1)c1ccnc(Cl)c1
2 | 68 to 69 °C | COC(=O)c1ccc(OCCCN(C(C)=O)c2ccc(Cl)cc2)cc1
3 | 137 to 139 °C | CCCCc1nn(-c2cccc(N)c2)c(=O)n1Cc1ccc(-c2ccccc2S(=O)(=O)NC(=O)c2ccccc2Cl)cc1
4 | 86 to 93 °C | CC(N)=CC(=O)NCCN1CCOCC1
5 | 179 to 181 °C | O=[N+]([O-])c1ccc2nc(-c3ccccc3)sc2c1
6 | 134 to 136 °C | COc1ccc(Cn2c(-c3ccco3)nc3c(-c4ccco4)ncnc32)cc1
7 | 108 to 110 °C | COC(CCNC(=O)C(F)(F)F)(c1ccccc1)c1ccccc1
8 | 97 °C | COc1cc(C(C)=O)c(OC)c2c1C(C)(C)CCC2(C)C
9 | 188 °C | Cc1cc(Nc2ccnc(Nc3ccc(S(=O)(=O)N(C)C4CCCN(C)C4)cc3)n2)ccc1F (centres undefined)
10 | 267 to 270 °C | COc1cc(Nc2c(C#N)cnc3cc(NC(C)=O)c(OC)cc23)c(Cl)cc1Cl
11 | 43 °C | CCCCCCCCSc1ccc(-c2ncc(CCCCC)cn2)cc1
12 | 70.5 °C | CCCc1ccc(C=NN=Cc2ccc(F)cc2)cc1
13 | 137 °C | O=C1C=CC(O)(c2ccc3ccccc3c2)C=C1
14 | 127 to 128 °C | O=C(NNc1ccc(Cl)cc1Cl)C(F)(F)F
15 | 206 to 208 °C | C=CCNC1=NS(=O)(=O)c2cnccc2N1
16 | 190 to 191 °C | O=C(O)c1cccc(-c2cccc3c2CN(Cc2cccc(C(F)(F)F)c2)C3=O)c1
17 | 169 to 172 °C | COc1ccc(Cn2nc3oc(=O)cc(C)c3c2C)cc1
18 | 87 to 90.5 °C | NCCOCC(O)c1ccc2sccc2c1 (centres undefined)
19 | 102 °C | Cc1cc(-n2ccnc2)c2cccc(OCc3c(Cl)ccc(S(=O)(=O)N4CCC[C@H]4C(=O)NCc4ccccn4)c3Cl)c2n1

Row | melting point | Compound
20 | 133 to 134 °C | NN=C(c1ccccc1)c1cc(Cl)ccc1N
21 | 196 to 197 °C | COc1ccc2c(c1)C(Cc1ccnc(F)c1)(Cc1ccnc(F)c1)c1cccnc1O2
22 | 110 to 112 °C | Cc1cc(OCc2ccc(-c3ccccc3-c3nnn(C(c4ccccc4)(c4ccccc4)c4ccccc4)n3)cc2)c(CCl)c(C)n1
23 | 85 to 88 °C | COc1ccc(C(OC(C)=O)C(COC(C)=O)[N+](=O)[O-])cc1OC (centres undefined)
24 | 194 to 196 °C | C=C1C(O)C(CO)OC1n1cc(CC)c(N)nc1=O (centres undefined)
25 | 77 to 79 °C | CC(=O)OCC1OC(n2ncc(C#N)n2)C(OC(C)=O)C1OC(C)=O (centres undefined)
26 | 205 to 208 °C | Cc1ccc(-c2ccc3c(c2)C=C(C(=O)NC2CCN(C(=O)OC(C)(C)C)CC2)CCO3)cc1
27 | 148 to 151 °C | CC(C)Nc1nc2c(F)c(F)c(F)cc2n1[C@@H]1O[C@H](C)[C@@H](O)[C@H]1O
28 | 150 to 152 °C | CC(C)(C)c1cc(C(c2ccc(C(F)(F)F)cc2)N2CCCCC2)c(O)c(C(C)(C)C)c1 (centres undefined)
29 | 123 to 124 °C | CN(N(S(C)(=O)=O)S(C)(=O)=O)S(C)(=O)=O
30 | 114 to 115 °C | COc1ccc2cccnc2c1N
31 | 147 to 148 °C | CCOC(=O)CNc1ccccc1C(N)=O
32 | 168 °C | NC(=O)C(=O)NC(C(=O)OC(c1ccccc1)c1ccccc1)c1ccccc1 (centres undefined)
33 | 190 to 191 °C | COc1ccc(Cl)c(Oc2c(NS(=O)(=O)c3ccc(C(C)C)cn3)ncnc2OCCOC(=O)Nc2ccccn2)c1
34 | 200 to 201 °C | C1=C2NCCN2C(c2ccccc2)c2ccccc2C1 (centres undefined)
35 | 190 to 192 °C | COc1ccc(C(=O)Nc2ccc(-c3ccc4c(c3)OCO4)cc2)cc1CCCN(C)C
36 | 98 to 100 °C | Cc1cc2c(c(C)c1Br)C(c1ccc(C(C)C)cc1)CS2 (centres undefined)
37 | 135 to 139 °C | CCCCn1c(=O)n(CC)c(=O)c2c1ncn2S(=O)(=O)c1ccc(C)cc1

Row | Compound | melting point
38 | O=C(OC1CCCC1)c1ncn2c1[C@@H]1CCCN1C(=O)c1c(Cl)cccc1-2 | 210 to 212 °C
39 | Clc1ccc2c(N3CCNCC3)n[nH]c2c1 | 135 to 137 °C
